The numbers were not newly measured in patent US20040096950A1, “Crystal structure of beta site APP cleaving enzyme (BACE) and methods of use thereof” (priority 2002, published 2004), which cites them from elsewhere.

Where a SMILES comes first, the peptide text is derived from it. [ ]: non-standard residue; d: D form. The star is where a group is joined. Sta = CC(C)C[C@H](N)[C@@H](O)CC(=O)O; Isovaleryl = CC(C)CC(=O)*

This data set has as its target BACE (Homo sapiens, UniProt P56817). As to conditions: background statement, no concentration given.

BACE, sequence (P56817 46-501): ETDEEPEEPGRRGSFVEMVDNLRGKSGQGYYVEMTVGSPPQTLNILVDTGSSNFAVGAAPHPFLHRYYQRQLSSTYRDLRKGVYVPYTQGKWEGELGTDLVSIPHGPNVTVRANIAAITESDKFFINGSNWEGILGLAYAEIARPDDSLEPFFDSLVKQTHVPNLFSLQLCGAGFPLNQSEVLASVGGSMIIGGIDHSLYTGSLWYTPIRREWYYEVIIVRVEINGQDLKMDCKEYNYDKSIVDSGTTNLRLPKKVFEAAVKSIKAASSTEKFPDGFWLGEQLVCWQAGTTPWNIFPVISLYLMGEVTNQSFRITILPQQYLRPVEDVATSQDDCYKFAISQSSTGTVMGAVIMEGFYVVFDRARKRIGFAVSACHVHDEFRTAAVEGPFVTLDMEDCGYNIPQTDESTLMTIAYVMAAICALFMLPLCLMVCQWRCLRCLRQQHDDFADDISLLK

As for `CC(C)CC(=O)N[C@H](C(=O)N[C@H](C(=O)N[C@@H](CC(C)C)[C@@H](O)CC(=O)N[C@@H](C)C(=O)N[C@@H](CC(C)C)[C@@H](O)CC(=O)O)C(C)C)C(C)C` [pepstatin] (Isovaleryl-VV[Sta]A[Sta]-OH), the “inhibition of BACE” value is “inhibited weakly”.
